Assay results reported in ChEMBL document CHEMBL1201862, “PubChem BioAssay data set” (2004).
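Dose response: 5 concentrations. Exposure: 48 h. Format: 96-well plates. Endpoint: linear interpolation; highest concentration if not reached. GI50 is the concentration that inhibits growth by half.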 Active and inactive are the calls of the source. Cut-off read from the data, not from the text of the source: active = GI50 up to about 1.1 µM and inactive = higher.

Tests used:
Experiment in all cases: inhibition of tumour cell growth, NCI panel, 48 h
KM12 = system: KM12
M14 = system: M14
HCC 2998 = system: HCC 2998
K562 = system: K562
PC-3 = system: PC-3
SR = system: SR
EKVX = system: EKVX
MOLT-4 = system: MOLT-4
OVCAR-5 = system: OVCAR-5
HCT-116 = system: HCT-116
NCI/ADR-RES = system: NCI/ADR-RES
T47D = system: T47D
SK-OV-3 = system: SK-OV-3
BT-549 = system: BT-549
NCI-H522 = system: NCI-H522
ACHN = system: ACHN
SNB-75 = system: SNB-75
RXF 393 = system: RXF 393
RPMI-8226 = system: RPMI-8226
HCT-15 = system: HCT-15

Compound: COC(=O)c1ccc2n1C1CC3CC(CC2C3)C1
- GI50 (KM12): > 100 µM (inactive)
- GI50 (M14): > 100 µM (inactive)
- GI50 (HCC 2998): 91.2 µM (inactive)
- GI50 (K562): 51.2 µM (inactive)
- GI50 (PC-3): 40 µM (inactive)
- GI50 (SR): 46.3 µM (inactive)
- GI50 (EKVX): > 100 µM (inactive)
- GI50 (MOLT-4): 57.5 µM (inactive)
- GI50 (OVCAR-5): > 100 µM (inactive)
- GI50 (HCT-116): 42.6 µM (inactive)
- GI50 (NCI/ADR-RES): > 100 µM (inactive)
- GI50 (T47D): 53.6 µM (inactive)
- GI50 (SK-OV-3): > 100 µM (inactive)
- GI50 (BT-549): > 100 µM (inactive)
- GI50 (NCI-H522): > 100 µM (inactive)
- GI50 (ACHN): > 100 µM (inactive)
- GI50 (SNB-75): > 100 µM (inactive)
- GI50 (RXF 393): 21.5 µM (inactive)
- GI50 (RPMI-8226): 42.8 µM (inactive)
- GI50 (HCT-15): > 100 µM

Compound: Cc1c(C#N)c2nnn(-c3ccc([N+](=O)[O-])cc3)c(=O)n2c1-c1ccccc1
- GI50 (KM12): 5.6 µM (inactive)
- GI50 (M14): 11.4 µM (inactive)
- GI50 (HCC 2998): 7.43 µM (inactive)
- GI50 (K562): 3.37 µM (inactive)
- GI50 (PC-3): 4.26 µM (inactive)
- GI50 (SR): 4.62 µM (inactive)
- GI50 (EKVX): 8.89 µM (inactive)
- GI50 (OVCAR-5): 17.1 µM (inactive)
- GI50 (HCT-116): 6.62 µM (inactive)
- GI50 (NCI/ADR-RES): 4.86 µM (inactive)
- GI50 (T47D): 3.49 µM (inactive)
- GI50 (SK-OV-3): 24.3 µM (inactive)
- GI50 (BT-549): 14.6 µM (inactive)
- GI50 (NCI-H522): 3.77 µM (inactive)
- GI50 (ACHN): 4.95 µM (inactive)
- GI50 (SNB-75): 19.8 µM (inactive)
- GI50 (RXF 393): 16.5 µM (inactive)
- GI50 (RPMI-8226): 3.13 µM (inactive)
- GI50 (HCT-15): 6.15 µM

Compound: Cc1cc2c(=Cc3ccc(N(C)C)cc3)c3ccccc3n2[n+]1C
- GI50 (KM12): 0.385 µM (active)
- GI50 (M14): 1.05 µM (active)
- GI50 (HCC 2998): 0.256 µM (active)
- GI50 (K562): 0.227 µM (active)
- GI50 (PC-3): 0.44 µM (active)
- GI50 (SR): 0.0865 µM (active)
- GI50 (EKVX): 1.02 µM (active)
- GI50 (MOLT-4): 0.282 µM (active)
- GI50 (OVCAR-5): 5.87 µM (inactive)
- GI50 (HCT-116): 0.365 µM (active)
- GI50 (NCI/ADR-RES): > 66.4 µM (inactive)
- GI50 (T47D): 0.282 µM (active)
- GI50 (SK-OV-3): 1.44 µM (inactive)
- GI50 (BT-549): 0.537 µM (active)
- GI50 (NCI-H522): 0.335 µM (active)
- GI50 (ACHN): 2.23 µM (inactive)
- GI50 (SNB-75): 0.409 µM (active)
- GI50 (RXF 393): 2.09 µM (inactive)
- GI50 (RPMI-8226): 0.107 µM (active)
- GI50 (HCT-15): 12.3 µM

Compound: Clc1nc(Cl)c(Cc2ccccc2)c(Cl)n1
- GI50 (KM12): 7.87 µM (inactive)
- GI50 (M14): 2.82 µM (inactive)
- GI50 (HCC 2998): 13.7 µM (inactive)
- GI50 (K562): 3.08 µM (inactive)
- GI50 (PC-3): 3.7 µM (inactive)
- GI50 (SR): 4.26 µM (inactive)
- GI50 (EKVX): 19 µM (inactive)
- GI50 (MOLT-4): 2.98 µM (inactive)
- GI50 (OVCAR-5): 21.8 µM (inactive)
- GI50 (HCT-116): 1.91 µM (inactive)
- GI50 (NCI/ADR-RES): 4.8 µM (inactive)
- GI50 (T47D): 9.12 µM (inactive)
- GI50 (SK-OV-3): 11.5 µM (inactive)
- GI50 (BT-549): 3.37 µM (inactive)
- GI50 (NCI-H522): 1.19 µM (inactive)
- GI50 (ACHN): 15.7 µM (inactive)
- GI50 (SNB-75): 5.52 µM (inactive)
- GI50 (RXF 393): 4.21 µM (inactive)
- GI50 (RPMI-8226): 5.32 µM (inactive)
- GI50 (HCT-15): 4.55 µM

Compound: COc1cc2c(SCCN(C)C)nc3ccccc3c2c2ccccc12
- GI50 (KM12): 1.56 µM (inactive)
- GI50 (M14): 1.68 µM (inactive)
- GI50 (HCC 2998): 1.47 µM (inactive)
- GI50 (K562): 1.72 µM (inactive)
- GI50 (PC-3): 2.22 µM (inactive)
- GI50 (SR): 1.7 µM (inactive)
- GI50 (EKVX): 1.67 µM (inactive)
- GI50 (MOLT-4): 1.54 µM (inactive)
- GI50 (OVCAR-5): 1.64 µM (inactive)
- GI50 (HCT-116): 1.67 µM (inactive)
- GI50 (NCI/ADR-RES): 5.38 µM (inactive)
- GI50 (T47D): 2.7 µM (inactive)
- GI50 (SK-OV-3): 10.4 µM (inactive)
- GI50 (BT-549): 5.7 µM (inactive)
- GI50 (NCI-H522): 1.68 µM (inactive)
- GI50 (ACHN): 1.78 µM (inactive)
- GI50 (SNB-75): 2.51 µM (inactive)
- GI50 (RXF 393): 1.93 µM (inactive)
- GI50 (RPMI-8226): 1.76 µM (inactive)
- GI50 (HCT-15): 1.61 µM

Compound: CN(C)CCn1c(=O)c2ccc3c4c(nn3CCN(C)C)c3ccccc3n(c1=O)c24
- GI50 (KM12): 0.205 µM (active)
- GI50 (M14): 0.411 µM (active)
- GI50 (HCC 2998): 0.129 µM (active)
- GI50 (K562): 0.146 µM (active)
- GI50 (PC-3): 0.351 µM (active)
- GI50 (SR): < 0.127 µM (active)
- GI50 (EKVX): < 0.0113 µM (active)
- GI50 (MOLT-4): < 0.01 µM (active)
- GI50 (OVCAR-5): 0.485 µM (active)
- GI50 (HCT-116): 0.193 µM (active)
- GI50 (NCI/ADR-RES): 0.368 µM (active)
- GI50 (T47D): 0.524 µM (active)
- GI50 (SK-OV-3): 0.412 µM (active)
- GI50 (BT-549): 1.84 µM (inactive)
- GI50 (NCI-H522): < 0.0219 µM (active)
- GI50 (ACHN): < 0.129 µM (active)
- GI50 (SNB-75): < 0.0146 µM (active)
- GI50 (RXF 393): 0.275 µM (active)
- GI50 (HCT-15): < 0.125 µM

Compound: Cc1ccc2c(c1)[nH]c(=S)n2C=C1C(=O)CC(C)(C)CC1=O
- GI50 (KM12): > 100 µM (inactive)
- GI50 (M14): > 100 µM (inactive)
- GI50 (HCC 2998): > 100 µM (inactive)
- GI50 (PC-3): > 100 µM (inactive)
- GI50 (SR): > 100 µM (inactive)
- GI50 (EKVX): 18.9 µM (inactive)
- GI50 (MOLT-4): > 100 µM (inactive)
- GI50 (OVCAR-5): > 100 µM (inactive)
- GI50 (HCT-116): > 100 µM (inactive)
- GI50 (NCI/ADR-RES): > 100 µM (inactive)
- GI50 (T47D): > 100 µM (inactive)
- GI50 (SK-OV-3): > 100 µM (inactive)
- GI50 (BT-549): > 100 µM (inactive)
- GI50 (NCI-H522): > 100 µM (inactive)
- GI50 (ACHN): > 100 µM (inactive)
- GI50 (SNB-75): > 100 µM (inactive)
- GI50 (RXF 393): > 100 µM (inactive)
- GI50 (HCT-15): > 100 µM

Compound: CCOc1ccc2nc(NC(NC(=O)c3cccnc3)(C(F)(F)F)C(F)(F)F)sc2c1
- GI50 (KM12): 29.3 µM (inactive)
- GI50 (M14): 34.1 µM (inactive)
- GI50 (HCC 2998): 22.4 µM (inactive)
- GI50 (K562): 38.4 µM (inactive)
- GI50 (PC-3): 31.7 µM (inactive)
- GI50 (SR): 24.9 µM (inactive)
- GI50 (EKVX): 22.6 µM (inactive)
- GI50 (MOLT-4): 20.4 µM (inactive)
- GI50 (OVCAR-5): 25.6 µM (inactive)
- GI50 (HCT-116): 25.4 µM (inactive)
- GI50 (NCI/ADR-RES): 25.8 µM (inactive)
- GI50 (T47D): 21 µM (inactive)
- GI50 (SK-OV-3): 93.8 µM (inactive)
- GI50 (BT-549): 30.2 µM (inactive)
- GI50 (NCI-H522): 23.4 µM (inactive)
- GI50 (ACHN): 29.3 µM (inactive)
- GI50 (SNB-75): 23.3 µM (inactive)
- GI50 (RXF 393): 21 µM (inactive)
- GI50 (HCT-15): 26 µM
